This note sets out measurements from US6500864B1, “Disulfide derivatives useful for treating allergic diseases” (Alcon Universal Ltd., priority 2000, dated 2002).

One may read the IC50 as the concentration that inhibits the measured activity by half.

The subject of this test is human conjunctival tissue mast cells. The test can be described thus: Inhibition of anti-human IgE induced histamine release from human conjunctival tissue mast cells (HCTMC), histamine by RIA. It counts as cell-based. As to conditions: Mast cell, bracketed value, equals the mean of the four single determinations in the same cell, read-out: IC50 (nM), value in square brackets. Here is the method: Methods detailing preparation of monodispersed HCTMC and mediator release studies with these cells have been described (U.S. Pat. No. 5,360,720 and Miller et al, Ocular Immunology and Inflammation, 4(1):39-49 (1996)). Briefly, human conjunctival tissue mast cells were isolated from post-mortem tissue donors obtained within 8 hours of death by various eye banks and transported in Dexsol® corneal preservation medium, or equivalent. Tissues were enzymatically digested by repeated exposure (30 min. at 37° C.) to collagenase and hyaluronidase (2× with 200 U each/gram tissue, then 2-4× with 2000 U each/gram tissue) in Tyrode's buffer containing 0.1% gelatin. (Tyrode's buffer (in mM): 137 NaCl, 2.7 KCl, 0.35 NaH2PO4, 1.8 CaCl2, 0.98 MgCl2, 11.9 NaHCO3, and 5.5 glucose). […]
Cells were harvested from the culture plate and counted for viability (trypan blue exclusion) and mast cell number (toluidine blue O). […] Supernatants were stored at −20° C. until analyzed for histamine content by RIA (Beckman Coulter, Chicago, Ill.). […]
Inhibition of histamine release was determined by direct comparison of with anti-IgE challenged mast cells using Dunnett's t-test (Dunnett, “A multiple comparison procedure for comparing treatments with a control”, J. Amer. Stat. Assoc. (1955), 50:1096-1121).

SMILES strings stand for the structures.

Take `C=CCNC(=O)Nc1ccccc1SSc1ccccc1NC(=O)NCC=C` [Compound 1]: the IC50 was found to be 194 nM.
